The text below walks through data of patent US4584186A, “Radiolabelled metallocene derivatives” (Mallinckrodt, Diagnostica (Holland) B.V., priority 1982, dated 1986).

For data set [1] the following is noted: rat, in vivo; cited from earlier work.
For data set [2] the following is noted: rabbit, in vivo.
Data set [3] is described as follows: renal clearance after administration to dogs (single injection method). Particulars: for clearance: intravenous; for clearance in words: dog. The class given is in vivo, dog (beagle). As for the experimental part: The renal clearance by tubular excretion is a measure for the renal function was determined in two dogs, viz. beagles with body weights of 13.8 kg (dog a) and 14.8 kg (dog b) respectively by the generally recognized single injection method, in broad outline as described in Example VII. As radioactive materials were used iodine-131 labelled o-iodohippuric acid sodium salt (I-131 Hippuran), indium-111 DTPA (diethylene triamine pentaacetic acid) and ruthenium-97 labelled ruthenocenoylglycine. Indium-111DTP is also recommended to be used in radiodiagnostic compositions for examination of the renal glomerular filtration function. The time intervals between the various administrations were chosen in such a way, that no interference between the radioactive materials could occur. The radioactive materials were administered intraveneously, blood samples were collected 5, 10, 15, 30, 60 and 90 minutes after administration. The emitted radioactivity was determined with a gamma camera. The decreasing radioactivity of the successive blood samples is a measure for the elimination of the radioactive compound from the blood.

Data set [4] can be described thus: organ distribution of radioactivity in mouse. Particulars: approx. 0.5 umole/kg.
Data set [5] is described as follows: urinary excretion and organ distribution in mice with increasing doses of inactive carrier. Particulars: inactive carrier for labelled ruthenocenoylglycine.

Structures can show the parent of a compound that is named as a salt.

With `[Ru+2].c1cc[cH-]c1.c1cc[cH-]c1` [ruthenium-103 labelled ruthenocene, ruthenocene], in data set [1], the “accumulation of radioactivity in lung and liver relative to kidney” value was “at least equal amounts as in the kidney”.
As for `O=C(O)CNC(=O)[c-]1cccc1.[Ru+2].c1cc[cH-]c1` [Rc glycine, ruthenocenoylglycine, labelled with ruthenium-103], in data set [2], the “accumulation in the kidneys and excretion” value is listed as “very rapid accumulation in the kidneys followed by a rapid excretion”; the “renal clearance (general statement)” value is reported as “even faster than that of iodohippuric acid sodium salt labelled with iodine-125”; the “renal clearance compared with iodine-125 labelled o-iodohippuric acid sodium salt” value is on record as “cleared more rapidly than iodine-125 labelled o-iodohippuric acid sodium salt”.
On to “indium-111 DTPA (diethylene triamine pentaacetic acid) [In - 111 DTPA]”, for which the clearance in data set [3] (dog a, beagle 13.8 kg) turned out to be 79.6 mL/min; in data set [3] (dog b, beagle 14.8 kg), 62.2 mL/min. The clearance in words result in data set [3] (comparison of the three radioactive compounds) is on record as “comparatively slow”.
For `O=C(O)CNC(=O)[c-]1cccc1.[Ru+2].c1cc[cH-]c1` [Ru-97 ruthenocenoylglycine, ruthenium-97 labelled ruthenocenoylglycine], the clearance in words result in data set [3] (in vivo) is on record as “faster than that of labelled o-iodohippuric acid salt”.
Regarding `CCOC(=O)CNC(=O)[c-]1cccc1.[Ru+2].c1cc[cH-]c1` [Rc glycine ester, ruthenocenoyl ethylglycinate, labelled with ruthenium-103], in data set [4] (after 1 hour), the 103Ru conc. kidney is reported as 141 dose/% body/wt, the 103Ru conc. liver was 43 dose/% body/wt and the 103Ru conc. lung worked out at 6 dose/% body/wt. In data set [4] (after 3 hours), the 103Ru conc. kidney was 90 dose/% body/wt, the 103Ru conc. liver turned out to be 24 dose/% body/wt and the 103Ru conc. lung came out at 2.6 dose/% body/wt. Moreover, in data set [4] (after 6 hours), the 103Ru conc. kidney amounted to 125 dose/% body/wt, the 103Ru conc. liver was found to be 3.5 dose/% body/wt and the 103Ru conc. lung was 3.0 dose/% body/wt.
Consider `O=C(O)CNC(=O)c1ccccc1I` [ortho-iodohippuric acid (salt), ortho-iodohippuric acid], for which the “results when used as inactive carrier instead of ruthenocenoyl- or ferrocenoylglycine” value in data set [5] is “Comparable results”.
In the case of `Nc1ccc(C(=O)NCC(=O)O)cc1` [para-aminohippuric acid (salt), para-aminohippuric acid], the “results when used as inactive carrier instead of ruthenocenoyl- or ferrocenoylglycine” value in data set [5] is given as “Comparable results”.
Take `O=C(O)CNC(=O)[c-]1cccc1.O=C(O)CNC(=O)[c-]1cccc1.[Ru+2]` [ruthenocenoyl-1,1'-diglycine]: the “accumulation in the kidneys and excretion” value in data set [2] was “very rapid accumulation in the kidneys followed by a rapid excretion”.
Regarding `NC(=O)[c-]1cccc1.[Ru+2].c1cc[cH-]c1` [ruthenocene monocarboxylic acid amide], the “accumulation of radioactivity in lung and liver relative to kidney” value in data set [1] is on record as “at least equal amounts as in the kidney”.
